Experimental data as given in PubChem BioAssay AID1259418 (Broad Institute, 2018).
Several values for one entry are separate records, joined by “and”; a condition that tells them apart may be missing. Identical values can stand only once. Results filed as inconclusive are left out. Activity calls are given as the source filed them.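 The calls were made as follows: active = fitted half-maximal concentration of signal decrease at or below twice the sample's top tested concentration; inconclusive = flat curve between -70 and -30 percent, or poor fit; inactive = flat within 30 percent, signal rise, or potency above limit.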

biological target: T. gondii ME49Luc in IFN-y HeLa, luciferase, 72 h; test: inhibitors of Toxoplasma growth in IFN-γ-primed HeLa – cell-based, ME49Luc, luciferase, 72 h, dose response (AID 1259418)

`O=C(Nc1cccc(F)c1)N1CCCCN2[C@H](CO)[C@H](c3ccc(C#Cc4cccnc4)cc3)[C@H]2C1` and `N#C[C@@H]1[C@H](c2ccc(-c3cccc(F)c3)cc2)[C@@H](CO)N1C(=O)NC1CCCC1` are within 1.5-fold of each other in AC50: 19.3 µM for the first, 20.4 µM for the second.

`CN(C)CCNC(=O)c1ccc2onc(-c3coc(C4CC4)n3)c2c1` and `Cc1cc(C(=O)N2CCC(c3cc4c(ncn4C)c(NCC4CC4)n3)CC2)ccc1Cl` are within 1.5-fold of each other in AC50: 21.3 µM for the first, 23.1 µM for the second.

Compared with `Cc1nc(OCC(=O)Nc2c(C)cccc2C)c2ccccc2n1`, `Cc1ccc(-c2nc(CN(c3ccccc3C)S(=O)(=O)c3cccs3)c(C)o2)cc1` is 3-fold lower in AC50: 28.8 µM for the first, 9.63 µM for the second.

`CCOc1ccccc1-n1c(C(C)N2CCN(C(=O)COc3ccc(Cl)cc3)CC2)nc2ccccc2c1=O` (stereo unspecified) and `CCOc1ccc(-c2nc(CN3CCN(C(=O)Nc4ccc(Cl)cc4)CC3)c(C)o2)cc1` are within 1.5-fold of each other in AC50: 7.75 µM for the first, 5.17 µM for the second.

`N#CCSC1=Nc2ccccc2C2=NC(CC(=O)NCc3cccs3)C(=O)N12` (stereo unspecified) and `O=C(CC1N=C2c3ccccc3N=C(SCc3ccccc3F)N2C1=O)NC1CCCCC1` (stereo unspecified) are within 1.5-fold of each other in AC50: 19.6 µM for the first, 19.1 µM for the second.

Going from `C[C@H](CO)N1C[C@H](C)[C@H](CN(C)C(=O)Nc2ccc(C(F)(F)F)cc2)Oc2c(NC(=O)c3ccc(-c4nccs4)cc3)cccc2C1=O` to `Cc1ccc2[nH]c(C(=O)NCc3ccncc3)c(NC(=O)c3ccc(F)cc3)c2c1`, the AC50 falls from 18 µM to 1.99 µM (9-fold).

`CC(C)(C)CC(C)(C)c1ccc(OCCOCC[N+](C)(C)Cc2ccccc2)cc1` and `CCOc1ccc(-c2nc(CN(c3ccc(OCC)cc3)S(=O)(=O)c3ccccc3)c(C)o2)cc1` are within 1.5-fold of each other in AC50: 15.6 µM for the first, 17.1 µM for the second.

`Cc1ccc(C)c(S(=O)(=O)N2CCC3(CC2)c2ncc(-c4cccc(F)c4)n2CCN3C)c1` and `Cc1ccc(S(=O)(=O)N2CCC3(CC2)NCCN=C3NC2CCCCCC2)c(C)c1` are within 1.5-fold of each other in AC50: 20.9 µM for the first, 14.2 µM for the second.

First: O=S(=O)(c1ccc(Cl)s1)N1CCC2(CC1)NCCN=C2NCc1ccc2c(c1)OCO2
Second: CC(C)Cc1ccc(S(=O)(=O)N2CCC3(CC2)NCCN=C3NC2CCCC2)cc1
The AC50 of the first is 2.8-fold higher: 34.8 µM for the first, 12.5 µM for the second.

`CC(C)c1cccc(NC(=O)C[C@H]2CC[C@H]3[C@@H](COc4ccc(NS(=O)(=O)c5ccccc5Cl)cc4C(=O)N3C)O2)c1` and `CN1C(=O)c2cc(NC(=O)c3cccc(F)c3)ccc2OC[C@H]2O[C@@H](CC(=O)NCC3CCCCC3)CC[C@@H]21` are within 1.5-fold of each other in AC50: 22.6 µM for the first, 21.5 µM for the second.

Compared with `O=C(c1ccc(-n2nc(C(F)(F)F)c3c2CCCC3)cc1)N1CCN(c2cccc(Cl)c2)CC1`, `COc1ccc(-n2nnc3c(N4CCN(C(=O)C(=O)c5c[nH]c6ccccc56)CC4)ncnc32)cc1` is 2.3-fold higher in AC50: 8.82 µM for the first, 20.3 µM for the second.

Compared with `C[C@H](O[C@H]1OCCN(Cc2n[nH]c(=O)[nH]2)[C@H]1c1ccc(F)cc1)c1cc(C(F)(F)F)cc(C(F)(F)F)c1`, `OC(c1cc(C(F)(F)F)nc2c(C(F)(F)F)cccc12)C1CCCCN1` (stereo unspecified) is 2.4-fold lower in AC50: 15.4 µM for the first, 6.5 µM for the second.

First: CC[C@H]1CN2CCC1C[C@@H]2[C@@H](O)c1ccnc2ccc(OC)cc12 (stereo partly specified)
Second: CCOc1ccc(-c2nc(CN3CCN(C(=O)Nc4cc(OC)ccc4OC)CC3)c(C)o2)cc1
The AC50 of the first is 17-fold lower: 2.25 µM for the first, 38 µM for the second.

Compared with `O=C(CCCCCCNC(=O)c1cnc(N(c2ccccc2)c2ccccc2)nc1)NO`, `O=C(Nc1ccccc1)c1ncn2c1CN(CC1CC1)S(=O)(=O)c1ccccc1-2` is 2.2-fold higher in AC50: 14.8 µM for the first, 32.6 µM for the second.

Going from `CCOc1ccccc1N(Cc1nc(-c2ccc(C)cc2)oc1C)S(=O)(=O)c1cccs1` to `CCOc1ccc(N(Cc2nc(-c3ccc(C)cc3)oc2C)S(=O)(=O)c2cccs2)cc1`, the AC50 falls from 9.38 µM to 5.31 µM (1.8-fold).

Compared with `N#C[C@H]1[C@H](c2ccc(-c3cccc(F)c3)cc2)[C@@H](CO)N1C(=O)NC1CCCC1`, `COc1ccc(-c2ccc3c(c2)[C@@H]2[C@@H](CCN2C(=O)c2cccc(F)c2)[C@H](CO)N3)cc1` is 1.6-fold higher in AC50: 16.7 µM for the first, 26.9 µM for the second.

`CCc1c(C)sc2c1CCN(Cc1nc(-c3cccc(OC)c3OC)oc1C)C2c1ccccc1` (stereo unspecified) and `COc1ccccc1-c1nc(CN(c2ccccc2OC)S(=O)(=O)c2ccc(C)cc2)c(C)o1` are within 1.5-fold of each other in AC50: 15.7 µM for the first, 12.4 µM for the second.

Going from `COc1ccc(-c2nc(NCCCN3CCCCC3C)c3ccccc3n2)cc1` (stereo unspecified) to `COc1cccc(-c2ccc3c(c2)[C@@H]2[C@@H](CCN2S(=O)(=O)c2ccccc2F)[C@@H](CO)N3)c1`, the AC50 rises from 13.9 µM to 25.4 µM (1.8-fold).

Going from `CCN1C(=O)CCc2cc(NC(=O)Cc3cccc(OC)c3)ccc21` to `CCc1ccc(C(=O)Nc2ccc3c(c2)CCC(=O)N3C)cc1`, the AC50 falls from 23 µM to 7.06 µM (3.3-fold).

Compared with `COc1ccccc1C(=O)Nc1ccc(-c2nc(-c3ccccc3)co2)cc1`, `COc1cccc(N(Cc2nc(-c3cccc(C)c3)oc2C)S(=O)(=O)c2ccc(C)cc2)c1` is 7.5-fold lower in AC50: 33.3 µM for the first, 4.46 µM for the second.

`CCN1CCCC1CNC(=O)C1CCN(Cc2cc3ccccc3n2Cc2ccc(F)cc2)CC1` (stereo unspecified) and `COc1ccccc1CN1CC[C@@H]2[C@H]1c1cc(-c3cccc(C(=O)N(C)C)c3)ccc1N[C@@H]2CO` are within 1.5-fold of each other in AC50: 21.2 µM for the first, 19.6 µM for the second.

Going from `CCc1cc(C(=O)Nc2ccc(C)cc2-c2cc(C)[nH]n2)c2c(C)noc2n1` to `Cc1ccc(NC(=O)N2CCN(Cc3nc(-c4cccc(Cl)c4)oc3C)CC2)c(Cl)c1`, the AC50 rises from 11.8 µM to 34.2 µM (2.9-fold).

`O=C(COc1ccc(F)cc1)N1CCC2(CC1)Nc1ccc(Cl)cc1-n1cccc12` and `COc1cccc(-c2ccc3c(c2)[C@H]2[C@H](CCN2S(=O)(=O)c2ccccc2F)[C@H](CO)N3)c1` are within 1.5-fold of each other in AC50: 17 µM for the first, 19.3 µM for the second.

`CCCN(C/C=C/I)C1CCc2cccc(O)c2C1` (stereo unspecified) and `Cc1nc(CCNC(=O)C2CCN(S(=O)(=O)c3ccc(C(C)(C)C)cc3)CC2)cs1` are within 1.5-fold of each other in AC50: 30.9 µM for the first, 31.4 µM for the second.

`Cn1nc2c(c1C(=O)Nc1ccc(N3CCCCC3)c(F)c1)CCCC2` showed an AC50 of 15.9 µM.

With `CCc1cnc(N2[C@H](C#N)[C@@H](c3ccc(C#Cc4ccccc4F)cc3)[C@H]2CO)s1` the AC50 was 20.5 µM and 6.21 µM.
With `O=C(c1ccc(F)cc1)N1CC(=O)N2[C@H](CO)[C@@H](c3ccc(C#CCC4CCCC4)cc3)[C@@H]2C1` the AC50 was 17.6 µM and 4.58 µM.
`Clc1ccccc1-c1nc(NCCCN2CCN(c3ccccc3)CC2)c2ccccc2n1` was tested, and the AC50 was > 39 µM (inactive).
With `O=C(Nc1ccc(Cl)cc1)N1[C@@H]2CNC[C@H]1C2c1ccc(-c2ccccc2)cc1` (stereo partly specified) the AC50 was 2.02 µM and 2.94 µM.
In the case of `Cc1nnsc1CN(C)Cc1[nH]c2ccc(F)cc2c1C`, the AC50 is reported as > 39 µM (inactive).
For `Cc1ccc(-c2nc(Cn3nnc(-c4nc(-c5ccccc5)no4)c3C)c(C)o2)cc1`, the AC50 was > 20 µM (inactive).
For `CCC(C)Nc1nc(-c2ccc(OC)cc2)nc2ccccc12` (stereo unspecified), the AC50 was > 39 µM (inactive).
In the case of `N#Cc1ccc(-c2ccc([C@@H]3[C@@H]4CN(S(=O)(=O)Cc5ccccc5)C[C@H]3N4)cc2)cc1`, the AC50 is reported as 6.55 µM and 15.5 µM.
`O=C(CC1N=C2c3ccccc3N=C(SCc3ccccc3F)N2C1=O)NCCc1ccccc1` (stereo unspecified) was tested, and the AC50 was > 39 µM (inactive).
`COc1ccc2c(c1)NC1(CCN(C(=O)C3CCCCC3)CC1)c1cccn1-2` was tested, and the AC50 was > 39 µM (inactive).
With `COc1ccc(S(=O)(=O)N(C)C[C@H]2Oc3c(NC(=O)c4nc5ccccc5s4)cccc3C(=O)N([C@@H](C)CO)C[C@@H]2C)cc1` the AC50 was 1.77 µM and 0.196 µM.
In the case of `Cn1cnc(S(=O)(=O)N2CCCCN3[C@H](CO)[C@H](c4ccc(C5=CCCCC5)cc4)[C@@H]3C2)c1`, the AC50 is reported as 18.4 µM and 20.2 µM.
For `CCOc1ccc(-c2nc(CN(c3ccc(OC)cc3)S(=O)(=O)c3cccs3)c(C)o2)cc1`, the AC50 was 8.01 µM and 17.4 µM.
For `COc1cccc(NC(=O)N2CC(=O)N3[C@H](C2)[C@H](c2ccc(C#CCC4CCCC4)cc2)[C@@H]3CO)c1`, the AC50 was 14.2 µM and 9.85 µM.
`Cc1ccc(C(=O)N2CCC3(CC2)Nc2cc(F)ccc2-n2cccc23)cc1C` was tested, and the AC50 was > 39 µM (inactive).
For `Cc1ccc(-c2nc(CN3CCN(C(=O)Nc4ccc(C)c(Cl)c4)CC3)c(C)o2)cc1`, the AC50 was > 39 µM (inactive).
For `COc1ccc(-c2nc3c(s2)CN(S(=O)(=O)c2ccccc2C)CC3)cc1`, the AC50 was 6.3 µM and 8.21 µM.
